Source: patent US20020071842A1, “Soluble CD1 compositions and uses thereof” (priority 2000, published 2002)

Key:
Experiment in all cases: Plate-bound mCD1d fusion protein hybridoma stimulation assay (IL-2 ELISA)
Type in all cases: cell-based, mouse
[1] = test system: XV104 hybridoma; conditions: XV104 diverse TCR hybridoma; plate-bound mCD1d-IgGFc2a fusion protein preincubated with lipid antigen
Summary of the method: (§1)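 Lipid antigens were incubated with protein A-immobilized mCD1d fusion protein at pH 7.2 (or in citrate/phosphate buffer of specified pH, then neutralized), typically 40:1 antigen:protein. After washing, 1×10^5 hybridoma cells per well were added overnight, 16-20 hr, and IL-2 in supernatants was read by ELISA.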

[2] = test system: KT/23 hybridoma; conditions: KT/23 NKT hybridoma; plate-bound mCD1d-IgGFc2a fusion protein preincubated with lipid antigen
Summary of the method: as §1

[3] = test system: 14S.7.N hybridoma; conditions: 14S.7.N diverse TCR hybridoma; plate-bound mCD1d-IgGFc2a fusion protein preincubated with lipid antigen
Summary of the method: as §1

[4] = test system: VIII24 hybridoma; conditions: VIII24 diverse TCR hybridoma; plate-bound mCD1d-IgGFc2a fusion protein preincubated with lipid antigen
Summary of the method: as §1

[5] = test system: 14S.6.A hybridoma; conditions: 14S.6.A diverse TCR hybridoma; plate-bound mCD1d-IgGFc2a fusion protein preincubated with lipid antigen
Summary of the method: as §1

[6] = test system: DN32D3 hybridoma; conditions: DN32D3 NKT hybridoma; plate-bound mCD1d-IgGFc2a fusion protein preincubated with lipid antigen
Summary of the method: as §1

[7] = test system: VII68 hybridoma; conditions: VII68 diverse TCR hybridoma; plate-bound mCD1d-IgGFc2a fusion protein preincubated with lipid antigen
Summary of the method: as §1

[8] = test system: 14S.10.C hybridoma; conditions: 14S.10 C diverse TCR hybridoma; plate-bound mCD1d-IgGFc2a fusion protein preincubated with lipid antigen
Summary of the method: as §1

[9] = test system: KT/12 hybridoma; conditions: KT/12 NKT hybridoma; plate-bound mCD1d-IgGFc2a fusion protein preincubated with lipid antigen
Summary of the method: as §1

[10] = test system: KT/7 hybridoma; conditions: KT/7 NKT hybridoma; plate-bound mCD1d-IgGFc2a fusion protein preincubated with lipid antigen
Summary of the method: as §1

[11] = test system: KT/22 hybridoma; conditions: KT/22 NKT hybridoma; plate-bound mCD1d-IgGFc2a fusion protein preincubated with lipid antigen
Summary of the method: as §1

[12] = test system: XV19 hybridoma; conditions: XV19 diverse TCR hybridoma; plate-bound mCD1d-IgGFc2a fusion protein preincubated with lipid antigen
Summary of the method: as §1

[13] = test system: Vβ/9 hybridoma; conditions: Vβ/9 NKT hybridoma; plate-bound mCD1d-IgGFc2a fusion protein preincubated with lipid antigen
Summary of the method: as §1

Compound | IL-2 secretion [1] | IL-2 secretion [2] | IL-2 secretion [3] | IL-2 secretion [4] | IL-2 secretion [5] | IL-2 secretion [6] | IL-2 secretion [7] | IL-2 secretion [8] | IL-2 secretion [9] | IL-2 secretion [10] | IL-2 secretion [11] | IL-2 secretion [12] | IL-2 secretion [13]
CCCCCCCCCCCCCCCCCCCCCCCCCC(=O)N[C@@H](CO[C@H]1O[C@H](CO)[C@H](O)[C@H](O)[C@H]1O)[C@H](O)[C@H](O)CCCCCCCCCCCCCC [α-GalCer, α-galactosylceramide] | 0 (A “0” indicates a mean of less than 50 pg/ml IL-2 was secreted) | +++ (“+++” indicates greater than 1000 pg/ml IL-2) | 0 (A “0” indicates a mean of less than 50 pg/ml IL-2 was secreted) | 0 (A “0” indicates a mean of less than 50 pg/ml IL-2 was secreted) | 0 (A “0” indicates a mean of less than 50 pg/ml IL-2 was secreted) | +++ (“+++” indicates greater than 1000 pg/ml IL-2) | 0 (A “0” indicates a mean of less than 50 pg/ml IL-2 was secreted) | 0 (A “0” indicates a mean of less than 50 pg/ml IL-2 was secreted) | +++ (“+++” indicates greater than 1000 pg/ml IL-2) | +++ (“+++” indicates greater than 1000 pg/ml IL-2) | +++ (“+++” indicates greater than 1000 pg/ml IL-2) | 0 (A “0” indicates a mean of less than 50 pg/ml IL-2 was secreted) | ++ (“++” indicates 250-1000 pg/ml)
phosphatidylinositol [PI] | 0 (A “0” indicates a mean of less than 50 pg/ml IL-2 was secreted) | + (“+” indicates 50-250 pg/ml) | + (“+” indicates 50-250 pg/ml) | 0 (A “0” indicates a mean of less than 50 pg/ml IL-2 was secreted) | + (“+” indicates 50-250 pg/ml) | 0 (A “0” indicates a mean of less than 50 pg/ml IL-2 was secreted) | 0 (A “0” indicates a mean of less than 50 pg/ml IL-2 was secreted) | 0 (A “0” indicates a mean of less than 50 pg/ml IL-2 was secreted) | + (“+” indicates 50-250 pg/ml) | 0 (A “0” indicates a mean of less than 50 pg/ml IL-2 was secreted) | + (“+” indicates 50-250 pg/ml) | 0 (A “0” indicates a mean of less than 50 pg/ml IL-2 was secreted) | 0 (A “0” indicates a mean of less than 50 pg/ml IL-2 was secreted)
unglycosylated ceramide | 0 (A “0” indicates a mean of less than 50 pg/ml IL-2 was secreted) | 0 (A “0” indicates a mean of less than 50 pg/ml IL-2 was secreted) | 0 (A “0” indicates a mean of less than 50 pg/ml IL-2 was secreted) | 0 (A “0” indicates a mean of less than 50 pg/ml IL-2 was secreted) | 0 (A “0” indicates a mean of less than 50 pg/ml IL-2 was secreted) | 0 (A “0” indicates a mean of less than 50 pg/ml IL-2 was secreted) | 0 (A “0” indicates a mean of less than 50 pg/ml IL-2 was secreted) | 0 (A “0” indicates a mean of less than 50 pg/ml IL-2 was secreted) | 0 (A “0” indicates a mean of less than 50 pg/ml IL-2 was secreted) | 0 (A “0” indicates a mean of less than 50 pg/ml IL-2 was secreted) | 0 (A “0” indicates a mean of less than 50 pg/ml IL-2 was secreted) | 0 (A “0” indicates a mean of less than 50 pg/ml IL-2 was secreted) | 0 (A “0” indicates a mean of less than 50 pg/ml IL-2 was secreted)
β-galactosylceramide [β-GalCer] | 0 (A “0” indicates a mean of less than 50 pg/ml IL-2 was secreted) | 0 (A “0” indicates a mean of less than 50 pg/ml IL-2 was secreted) | 0 (A “0” indicates a mean of less than 50 pg/ml IL-2 was secreted) | 0 (A “0” indicates a mean of less than 50 pg/ml IL-2 was secreted) | 0 (A “0” indicates a mean of less than 50 pg/ml IL-2 was secreted) | 0 (A “0” indicates a mean of less than 50 pg/ml IL-2 was secreted) | 0 (A “0” indicates a mean of less than 50 pg/ml IL-2 was secreted) |  | 0 (A “0” indicates a mean of less than 50 pg/ml IL-2 was secreted) | 0 (A “0” indicates a mean of less than 50 pg/ml IL-2 was secreted) | 0 (A “0” indicates a mean of less than 50 pg/ml IL-2 was secreted) | 0 (A “0” indicates a mean of less than 50 pg/ml IL-2 was secreted) | 0 (A “0” indicates a mean of less than 50 pg/ml IL-2 was secreted)
